Experimental data: US20100216777A1, “AMINOPYRAZINE ANALOGS FOR TREATING GLAUCOMA AND OTHER RHO KINASE-MEDIATED DISEASES AND CONDITIONS” (ALCON, INC., priority 2004, published 2010)
Counter-ions that a name gives are not always drawn.

Biological target: T1, Human Recombinant ROCK-II Enzyme (ROKα/ROCK-II, aa 11-552) (Homo sapiens, UniProt O75116)
T1 construct: (ROKα/ROCK-II, (aa 11-552), human active); purchased Upstate Biotechnology Co., Lake Placid, N.Y. 14-451
Experiment: ROCK-II inhibition, fluorescence polarization assay (IMAP ROCK II kit)
Format: biochemical
Conditions: substrate 200 nM, ATP 10 μM, 60 min at 23° C., read-out: Enzyme Inhibition Constants (IC50) against Human Recombinant ROCK-II Enzyme
Experimental: The ability of certain compounds of Formula (I) to inhibit rho kinase was evaluated by means of in vitro assays. Human recombinant Rho kinase (ROKα/ROCK-II, (aa 11-552), human active, catalog #14-451, Upstate Biotechnology Co., Lake Placid, N.Y.), MgCl2/ATP cocktail, and enzyme substrate (Upstate) are used.
The fluorescence polarization assays are performed using a Biomek 2000 Robotic Workstation (Beckman Instruments, Palo Alto, Calif.) in a 96-well plate format. The assays are performed utilizing the IMAP ROCK II kit (Molecular Devices, Sunnyvale, Calif.) as follows. Substrate and ATP concentrations used are 200 nM and 10 μM, respectively, while the enzyme concentration is 3.96×10^−3 units per well. The substrate, enzyme, and ATP dilutions are made with the reaction buffer provided by the vendor. Test compounds are diluted in 10:10 DMSO-ethanol (vol/vol). For the actual assays, the various components are added into black, clear bottom, 96-well plates (Costar, Corning, N.Y.) in a final volume of 20 μl per well. After the enzyme reaction (60 min at 23° C.), 60 μl of the binding solution (IMAP kit, provided by vendor) is added per well and incubated for an additional 30 minutes in the dark at 23° C. Fluorescence polarization of the reaction mixtures is then measured on the Analyst™ HT instrument (Molecular Devices, Sunnyvale, Calif.).
The data generated are then analyzed using a non-linear, iterative, sigmoidal-fit computer program purchased from IDBS (Emeryville, Calif.) and as previously described (Sharif et al., J. Pharmacol. Exp. Ther. 286:1094-1102, 1998; Sharif et al., J. Pharmacol. Expt. Ther. 293:321-328, 2000; Sharif et al., J. Ocular Pharmacol. Ther. 18:141-162, 2002a; Sharif et al., J. Pharmac. Pharmacol. 54:539-547, 2002b) to generate the inhibition constants for the test compounds.

T1 sequence (O75116 11-552): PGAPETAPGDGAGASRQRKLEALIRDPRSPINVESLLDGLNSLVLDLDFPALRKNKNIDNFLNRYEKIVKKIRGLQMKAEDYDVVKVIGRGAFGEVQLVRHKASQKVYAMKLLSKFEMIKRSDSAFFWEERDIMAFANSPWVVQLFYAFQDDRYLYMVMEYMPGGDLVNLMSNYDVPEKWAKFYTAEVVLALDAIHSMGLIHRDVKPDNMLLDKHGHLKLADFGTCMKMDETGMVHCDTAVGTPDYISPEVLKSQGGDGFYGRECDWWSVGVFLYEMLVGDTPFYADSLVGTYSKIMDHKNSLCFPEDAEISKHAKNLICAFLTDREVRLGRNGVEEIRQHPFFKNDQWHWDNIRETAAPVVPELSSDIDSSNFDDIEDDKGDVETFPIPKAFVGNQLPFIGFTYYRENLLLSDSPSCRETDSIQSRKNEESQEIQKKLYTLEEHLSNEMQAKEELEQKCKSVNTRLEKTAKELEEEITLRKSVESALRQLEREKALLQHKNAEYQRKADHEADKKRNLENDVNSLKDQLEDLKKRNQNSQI

Compound | IC50
CNc1ncc(-c2ccncc2)nc1N1CCCN(C)CC1 [Example 25, N-Methyl-3-(4-methyl-1,4-diazepan-1-yl)-5-(pyridin-4-yl)pyrazin-2-amine hydrochloride] | 2.4 nM
CNc1ncc(-c2ccncc2)nc1NC1CCCNC1 (stereo not shown) [Example 26, N^2-Methyl-N^3-(piperidin-3-yl)-5-(pyridin-4-yl)pyrazine-2,3-diamine hydrochloride] | 2.1 nM
CN1CCC(Nc2nc(-c3ccncc3)cnc2N)CC1 [Example 14, N,N-(1-Methylpiperidin-4-yl)-6-(pyridin-4-yl)pyrazine-2,3-diamine] | 3.5 nM
CN1CCC(N(C)c2nc(-c3ccncc3)cnc2N)CC1 [Example 18, N,N-Methyl-N,N-(1-methylpiperidin-4-yl)-6-(pyridin-4-yl)pyrazine-2,3-diamine] | 9.6 nM
Nc1ncc(-c2ccncc2)nc1N(CCO)CCO [Example 9, 2,2′-(3-Amino-6-(pyridin-4-yl)pyrazin-2-ylazanediyl)diethanol] | 22 nM
COCCNc1ncc(-c2ccncc2)nc1N1CCCN(C)CC1 [Example 27, N-(2-Methoxyethyl)-3-(4-methyl-1,4-diazepan-1-yl)-5-(pyridin-4-yl)pyrazin-2-amine hydrochloride] | 5.2 nM
CN1CCCN(c2nc(-c3cc[nH]n3)cnc2N)CC1 [Example 3, 3-(4-Methyl-1,4-diazepan-1-yl)-5-(1H-pyrazol-3-yl)pyrazin-2-amine] | 2.8 nM
CN1CCCC(Nc2nc(-c3ccncc3)cnc2N)C1 (stereo not shown) [Example 15, N,N-(1-Methylpiperidin-3-yl)-6-(pyridin-4-yl)pyrazine-2,3-diamine] | 5.5 nM
CCN(CC)c1ncc(-c2ccncc2)nc1N1CCCN(C)CC1 [Example 37, N,N-Diethyl-3-(4-methyl-1,4-diazepan-1-yl)-5-(pyridin-4-yl)pyrazin-2-amine hydrochloride] | 6.7 nM
Nc1ncc(-c2ccncc2)nc1N1CCC(O)CC1 [Example 12, 1-(3-Amino-6-(pyridin-4-yl)pyrazin-2-yl)piperidin-4-ol] | 6.9 nM
COCCN(C)c1ncc(-c2ccncc2)nc1N1CCCN(C)CC1 [Example 29, N-(2-Methoxyethyl)-N-methyl-3-(4-methyl-1,4-diazepan-1-yl)-5-(pyridin-4-yl)pyrazin-2-amine hydrochloride] | 45 nM
Nc1ncc(-c2ccncc2)nc1N1CCCCC1 [Example 10, 3-(Piperidin-1-yl)-5-(pyridin-4-yl)pyrazin-2-amine] | 59 nM
CN1CCC(Oc2nc(-c3ccncc3)cnc2N)CC1 [Example 20, 3-(1-Methylpiperidin-4-yloxy)-5-(pyridin-4-yl)pyrazin-2-amine] | 5.6 nM
CN1CCCN(c2nc(-c3ccnc(N)c3)cnc2N)CC1 [Example 8, 5-(2-Aminopyridin-4-yl)-3-(4-methyl-1,4-diazepan-1-yl)pyrazin-2-amine trihydrochloride] | 53 nM
CN1CCCN(c2nc(-c3ccncc3)cnc2N)CC1 [Example 1, 3-(4-Methyl-1,4-diazepan-1-yl)-5-(pyridin-4-yl)pyrazin-2-amine] | 3 nM
CN1CCCC(Oc2nc(-c3ccncc3)cnc2N)C1 (stereo not shown) [Example 21, 3-(1-Methylpiperidin-3-yloxy)-5-(pyridin-4-yl)pyrazin-2-amine] | 4.2 nM

These reach a lower IC50. Values come first.

IC50 | Compound
0.68 nM | Nc1ncc(-c2ccncc2)nc1OC1CCCNC1 (stereo not shown) [Example 23, 3-(Piperidin-3-yloxy)-5-(pyridin-4-yl)pyrazin-2-amine]
0.56 nM | CN1CCCN(c2nc(-c3ccncc3)cnc2N2CCCCC2)CC1 [Example 48, 1-Methyl-4-(3-(piperidin-1-yl)-6-(pyridin-4-yl)pyrazin-2-yl)-1,4-diazepane hydrochloride]
0.3 nM | c1cc(-c2cnc(N3CCCCC3)c(NC3CCCNC3)n2)ccn1 (stereo not shown) [Example 49, 3-(Piperidin-1-yl)-N-(piperidin-3-yl)-6-(pyridin-4-yl)pyrazin-2-amine]
1.7 nM | CN1CCCN(c2nc(-c3ccncc3)cnc2N(C)C)CC1 [Example 32, N,N-dimethyl-3-(4-methyl-1,4-diazepan-1-yl)-5-(pyridin-4-yl)pyrazin-2-amine hydrochloride]
1.1 nM | Nc1ncc(-c2ccncc2)nc1OC1CCNCC1 [Example 22, 3-(Piperidin-4-yloxy)-5-(pyridin-4-yl)pyrazin-2-amine]
0.054 nM | c1cc(-c2cnc(N3CCCC3)c(OC3CCNCC3)n2)c2cc[nH]c2n1 [Example 47, 4-(6-(Piperidin-4-yloxy)-5-(pyrrolidin-1-yl)pyrazin-2-yl)-1H-pyrrolo[2,3-b]pyridine]
0.033 nM | c1cc2[nH]ncc2cc1-c1cnc(N2CCCC2)c(N2CCCNCC2)n1 [Example 42, 5-(6-(1,4-Diazepan-1-yl)-5-(pyrrolidin-1-yl)pyrazin-2-yl)-1H-indazole hydrochloride]
0.82 nM | Nc1ncc(-c2ccncc2)nc1NC1CCNCC1 [Example 16, N,N-2-(Piperidin-4-yl)-6-(pyridin-4-yl)pyrazine-2,3-diamine]
0.54 nM | CN1CCCN(c2nc(-c3ccnc4[nH]ncc34)cnc2N(C)C)CC1 [Example 33, N,N-Dimethyl-3-(4-methyl-1,4-diazepan-1-yl)-5-(1H-pyrazolo[3,4-b]pyridin-4-yl)pyrazin-2-amine dihydrochloride]
0.11 nM | Cc1n[nH]c2ccc(-c3cnc(N4CCCC4)c(N4CCCNCC4)n3)cc12 [Example 43, 5-(6-(1,4-Diazepan-1-yl)-5-(pyrrolidin-1-yl)pyrazin-2-yl)-3-methyl-1H-indazole hydrochloride]
0.02 nM | CN1CCCN(c2nc(-c3ccncc3)cnc2N2CCCCCC2)CC1 [Example 50, 1-(3-(Azepan-1-yl)-6-(pyridin-4-yl)pyrazin-2-yl)-4-methyl-1,4-diazepane hydrochloride]
0.21 nM | Nc1ncc(-c2ccncc2)nc1NC1CCCNC1 (stereo not shown) [Example 17, N,N-(Piperidin-3-yl)-6-(pyridin-4-yl)pyrazine-2,3-diamine]
0.94 nM | CN(C)c1ncc(-c2ccncc2)nc1OC1CCNCC1 [Example 35, N,N-Dimethyl-3-(piperidin-4-yloxy)-5-(pyridin-4-yl)pyrazin-2-amine hydrochloride]
1.7 nM | Nc1ncc(-c2ccncc2)nc1N1CCN(CCCO)CC1 [Example 24, 3-(4-(3-Amino-6-(pyridin-4-yl)pyrazin-2-yl)piperazin-1-yl)propan-1-ol]
0.16 nM | CN1CCCN(c2nc(-c3ccnc4[nH]ccc34)cnc2N2CCCC2)CC1 [Example 39, 4-(6-(4-Methyl-1,4-diazepan-1-yl)-5-(pyrrolidin-1-yl)pyrazin-2-yl)-1H-pyrrolo[2,3-b]pyridine dihydrochloride]
0.084 nM | c1cc(-c2cnc(N3CCCC3)c(OC3CCNCC3)n2)ccn1 [Example 46, 3-(Piperidin-4-yloxy)-5-(pyridin-4-yl)-2-(pyrrolidin-1-yl)pyrazine]
0.064 nM | Nc1ncc(-c2ccncc2)nc1NC1CCNC1 (stereo not shown) [Example 19, 6-(Pyridin-4-yl)-N^2-(pyrrolidin-3-yl)pyrazine-2,3-diamine]
0.95 nM | CN1CCCN(c2nc(-c3ccc4[nH]ncc4c3)cnc2N)CC1 [Example 7, 5-(1H-Indazol-5-yl)-3-(4-methyl-1,4-diazepan-1-yl)pyrazin-2-amine dihydrochloride]
